Biological target: T1, WT-TTR (Homo sapiens, UniProt P02766)
T1 construct: TTR is a 127-residue β-sheet rich homotetramer; made in house; host or cells: Escherichia coli
Assay: Acid-mediated (pH 4.4) TTR fibril formation assay (turbidity)
Assay type: biochemical
Conditions: inhibitor 7.2 μM, tetrameric TTR 3.6 μM, pH 4.4, 72 h
Method: The inhibitory activity of the oxime ethers (7.2 μM) against acid-mediated (pH 4.4) TTR (3.6 μM) amyloid formation is summarized in FIG. 10.
Wild type TTR was purified from an Escherichia coli expression system as described previously (Lashuel, H. A.; et al. Biochemistry 1999, 38, 13560-13573). Disposable cuvettes (Fisher #14 385 938) were charged with 495 μL of a 0.4 mg/mL stock of TTR (7.2 μM) in 10 mM phosphate (pH 7.2), 100 mM KCl, 1 mM EDTA, and 0.2% NaN3. 5 μL of the inhibitors in DMSO (1.44 mM) were added to the TTR solutions and the samples were incubated for 30 min at 37° C. The pH was then lowered to 4.4 by addition of 0.5 mL of 200 mM acetate buffer (pH 4.2, 100 mM KCI, 1 mM EDTA, 0.2% NaN3) to each cuvette. The cuvettes were left undisturbed for 72 h at 37° C., then vortexed to evenly distribute any precipitate throughout the sample. The turbidity was measured on a Hewlett Packard model 8453 UV-Vis Spectrophotometer at 350 and 400, or 500 nm. All samples were performed in duplicate or triplicate and results reported are representative examples of at least three analyses.
FIG. 4 is a table showing the activities of the 96 bisarylhydrazones that were tested for inhibition of fibril formation. Bisarylhydrazone activity (7.2 μM) against WT-TTR (3.6 μM) amyloid fibril formation at pH 4.4 (72 h). […]

Work on `Oc1cc(Cl)cc(Cl)c1` [3,5-Dichlorophenol] yielded an inhibition at 7.2 µM of 86%.
